# Results reported in ChEMBL document CHEMBL1136196, “Synthesis of three enantiomeric pairs of scyllo-inositol phosphate and molecular interactions between all possible regioisomers of scyllo-inositol phosphate and inositol 1,4,5-trisphosphate 3-kinase” (Bioorg Med Chem Lett, 2003).
# Biological target: Inositol-trisphosphate 3-kinase A (Rattus norvegicus, UniProt P17105)
# Assay: Binding affinity against recombinant plasmid rat brain IP3K by overexpressing in Escherichia coli
# Chain of Inositol-trisphosphate 3-kinase A (P17105 whole entry): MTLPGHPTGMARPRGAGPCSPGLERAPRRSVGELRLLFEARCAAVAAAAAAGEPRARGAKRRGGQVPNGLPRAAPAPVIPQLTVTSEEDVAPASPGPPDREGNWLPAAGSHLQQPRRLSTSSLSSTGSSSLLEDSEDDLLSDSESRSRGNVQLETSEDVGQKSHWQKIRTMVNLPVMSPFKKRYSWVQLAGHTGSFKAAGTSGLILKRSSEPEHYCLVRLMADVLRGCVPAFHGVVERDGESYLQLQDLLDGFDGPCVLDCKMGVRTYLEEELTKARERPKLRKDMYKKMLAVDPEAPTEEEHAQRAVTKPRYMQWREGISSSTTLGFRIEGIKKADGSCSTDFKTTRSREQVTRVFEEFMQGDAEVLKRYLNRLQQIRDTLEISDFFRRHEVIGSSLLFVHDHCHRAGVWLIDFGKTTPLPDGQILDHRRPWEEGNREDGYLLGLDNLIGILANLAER
row,IC50 [µM],SMILES
1,> 100,O=P(O)(O)O[C@H]1[C@H](OP(=O)(O)O)[C@H](OP(=O)(O)O)[C@H](O)[C@@H](O)[C@H]1OP(=O)(O)O
2,39.4,O=P(O)(O)O[C@H]1[C@@H](O)[C@@H](OP(=O)(O)O)[C@H](OP(=O)(O)O)[C@@H](OP(=O)(O)O)[C@@H]1O
3,90,O=P(O)(O)O[C@H]1[C@H](O)[C@@H](OP(=O)(O)O)[C@H](O)[C@@H](OP(=O)(O)O)[C@H]1O
4,43.7,"O=P(O)(O)O[C@@H]1[C@H](O)[C@H](O)[C@@H](OP(=O)(O)O)[C@H](OP(=O)(O)O)[C@H]1O (stereo in doubt; form 3) [INS(1,4,5)P3]"
5,27.8,O=P(O)(O)O[C@H]1[C@H](O)[C@@H](OP(=O)(O)O)[C@H](OP(=O)(O)O)[C@@H](OP(=O)(O)O)[C@H]1O
6,27.4,O=P(O)(O)O[C@H]1[C@H](OP(=O)(O)O)[C@H](O)[C@H](O)[C@@H](O)[C@@H]1OP(=O)(O)O
7,6.3,"O=P(O)(O)O[C@@H]1[C@H](O)[C@H](O)[C@@H](OP(=O)(O)O)[C@H](OP(=O)(O)O)[C@H]1O (stereo in doubt; form 2) [INS(1,4,5)P3]"
8,> 100,O=P(O)(O)O[C@H]1[C@H](OP(=O)(O)O)[C@@H](OP(=O)(O)O)[C@H](O)[C@@H](O)[C@H]1OP(=O)(O)O
9,2.6,"O=P(O)(O)O[C@@H]1[C@H](O)[C@H](O)[C@@H](OP(=O)(O)O)[C@H](OP(=O)(O)O)[C@H]1O (stereo in doubt; form 1) [INS(1,4,5)P3]"
